Assay results published in paper PMC7265429, “Characterization of a new small-molecule inhibitor of HDAC6 in glioblastoma” (Cell Death & Disease, 2020).

Tested on: GNS166 cells
Test: Microarray whole-transcriptome gene expression analysis
Type: cell-based, human
Conditions: DMSO vs 5 µM SAHA, upregulated genes
Description: Whole-transcriptome analysis was performed from 300 ng of RNA using HuGene-2_0-st-v1 expression array (Affymetrix), which covers 48,226 transcripts. Raw data were first checked for quality purposes through the Affymetrix® Expression Console™ Software v1.4.1 and TAC software v4.0. Then, data were normalized using the Robust Multi-array Average (RMA) and analyzed by Limma tool. Probesets with FDR-corrected p-values smaller than 0.05 were selected. Functional enrichment on Gene Ontology (GO) biological processes was performed on a smaller subset of the differentially expressed genes (corrected p-value < 0.001) by means of Broad Institute GSEA. […] The data that support this study have been deposited in NCBI´s Gene Expression Omnibus and are accessible through GEO series accession number GSE143887.

O=C(CCCCCCC(=O)Nc1ccccc1)NO [SAHA, Suberoylanilide hydroxamic acid]
logFC NMUR2 (transcript TC0500012531.hg.1): 2.3
logFC PIM1 (transcript TC0600007862.hg.1): 1.267
logFC BCKDHB (transcript TC0600008632.hg.1): 0.8913
logFC SLC16A10 (transcript TC0600009143.hg.1): 1.06
logFC TBPL1 (transcript TC0600009508.hg.1): 0.8103
logFC STK38 (transcript TC0600011661.hg.1): 0.8577
logFC SOGA3 (transcript TC0600013119.hg.1): 1.659
logFC STX7 (transcript TC0600013193.hg.1): 1.104
logFC CYB5R4 (transcript TC0600014148.hg.1): 0.9356
logFC ARL4A (transcript TC0700006737.hg.1): 1.551
logFC AHR (transcript TC0700006795.hg.1): 1.0742
logFC C7orf57 (transcript TC0700007475.hg.1): 1.163
logFC PRKAR2B (transcript TC0700008745.hg.1): 1.383
logFC ANKRD7 (transcript TC0700008898.hg.1): 1.335
logFC SND1 (transcript TC0700009020.hg.1): 0.9855
logFC FAM71F1 (transcript TC0700009060.hg.1): 1.462
logFC DGKB (transcript TC0700010327.hg.1): 0.979
logFC TMEM60 (transcript TC0700011601.hg.1): 0.8857
logFC FAM3C (transcript TC0700012427.hg.1): 0.9259
logFC IQUB (transcript TC0700012456.hg.1): 1.539
logFC RASA4 (transcript TC0700013603.hg.1): 1.334
logFC KIAA1456 (transcript TC0800006802.hg.1): 1.838
logFC PDGFRL (transcript TC0800006873.hg.1): 1.146
logFC PLAT (transcript TC0800010275.hg.1): 1.063
logFC PAG1 (transcript TC0800010926.hg.1): 1.472
logFC EXT1 (transcript TC0800011579.hg.1): 1.229
logFC SLC26A7 (transcript TC0800012325.hg.1): 0.8985
logFC PSAT1 (transcript TC0900007667.hg.1): 0.8807
logFC MLLT3 (transcript TC0900009679.hg.1): 1.79
logFC APBA1 (transcript TC0900010350.hg.1): 1.1769
logFC NR6A1 (transcript TC0900011501.hg.1): 1.227
logFC ALDH1A1 (transcript TC0900012245.hg.1): 1.351
logFC CDC14B (transcript TC0900012256.hg.1): 1.18
logFC BAMBI (transcript TC1000007132.hg.1): 1.194
logFC DNAJC1 (transcript TC1000010006.hg.1): 1.349
logFC ZNF215 (transcript TC1100006749.hg.1): 1.332
logFC GRIA4 (transcript TC1100008948.hg.1): 1.769
logFC C11orf88 (transcript TC1100009023.hg.1): 1.468
logFC SIK2 (transcript TC1100009026.hg.1): 0.9192
logFC NRGN (transcript TC1100009398.hg.1): 0.9705
logFC FZD4 (transcript TC1100011867.hg.1): 1.1951
logFC CCDC82 (transcript TC1100012052.hg.1): 0.8598
logFC IL18 (transcript TC1100012318.hg.1): 1.544
logFC CDON (transcript TC1100012722.hg.1): 2.237
logFC FAM89B (transcript TC1100013043.hg.1): 0.8784
logFC IGF2 (transcript TC1100013131.hg.1): 1.158
logFC C12orf60 (transcript TC1200006948.hg.1): 1.183
logFC ARNTL2 (transcript TC1200007147.hg.1): 1.2211
logFC GDF11 (transcript TC1200007809.hg.1): 1.519
logFC TMTC2 (transcript TC1200008322.hg.1): 1.0601
logFC TMTC3 (transcript TC1200008373.hg.1): 1.159
logFC TXNRD1 (transcript TC1200008675.hg.1): 0.8282
logFC P2RX7 (transcript TC1200009157.hg.1): 1.148
logFC RHEBL1 (transcript TC1200010612.hg.1): 1.826
logFC ATP2B1 (transcript TC1200011474.hg.1): 1.035
logFC LRRC63 (transcript TC1300007085.hg.1): 1.37
logFC SLC46A3 (transcript TC1300008468.hg.1): 1.1281
logFC UBL3 (transcript TC1300008497.hg.1): 0.9113
logFC LCP1 (transcript TC1300008840.hg.1): 1.339
logFC KLF12 (transcript TC1300009249.hg.1): 1.022
logFC SLITRK1 (transcript TC1300009376.hg.1): 1.004
logFC FOXG1 (transcript TC1400006791.hg.1): 0.91
logFC SOCS4 (transcript TC1400007221.hg.1): 0.9561
logFC ARID4A (transcript TC1400007307.hg.1): 0.9227
logFC SLC7A8 (transcript TC1400008705.hg.1): 1.877
logFC GCH1 (transcript TC1400009239.hg.1): 1.069
logFC KLHL28 (transcript TC1400010737.hg.1): 1.205
logFC TMOD2 (transcript TC1500007238.hg.1): 1.505
logFC LRRC49 (transcript TC1500007735.hg.1): 1.1742
logFC DENND4A (transcript TC1500009804.hg.1): 1.04
logFC UACA (transcript TC1500009921.hg.1): 1.398
logFC RGMA (transcript TC1500010501.hg.1): 0.8186
logFC YPEL3 (transcript TC1600009952.hg.1): 1.349
logFC ACSM3 (transcript TC1600011362.hg.1): 1.318
logFC NLK (transcript TC1700007344.hg.1): 1.006
logFC NGFR (transcript TC1700008209.hg.1): 1.322
logFC DYNLL2 (transcript TC1700008418.hg.1): 0.9396
logFC MYO1D (transcript TC1700010358.hg.1): 1.521
logFC MMD (transcript TC1700011181.hg.1): 0.9396
logFC CBX4 (transcript TC1700011953.hg.1): 1.178
logFC UNC13A (transcript TC1900009984.hg.1): 2.076
logFC KIAA1683 (transcript TC1900010008.hg.1): 1.003
logFC DIRAS1 (transcript TC1900011842.hg.1): 0.9114
logFC TGM2 (transcript TC2000009058.hg.1): 1.058
logFC KCNQ2 (transcript TC2000009809.hg.1): 1.266
logFC SRXN1 (transcript TC2000009960.hg.1): 0.9857
logFC SH3BGR (transcript TC2100007166.hg.1): 0.8256
logFC ADAMTS1 (transcript TC2100007821.hg.1): 1.343
logFC TIMP3 (transcript TC2200007150.hg.1): 0.905
